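Five compound concentrations were applied to cells in 96-well plates for 48 hours; endpoints were derived by simple linear interpolation of the resulting dose-response curve. GI50 = concentration required for 50% inhibition of growth.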 Active and inactive are the calls of the source. No stated cut-off is given here; in the data, active = GI50 up to about 1.1 µM and inactive = higher.
System: HCC 2998
Test: growth of human tumour cells (NCI), 48 h

SMILES: CC1(C)N/C(=C\C=O)C(C)(C)N1O
- GI50: > 100 µM (inactive)

From ChEMBL document CHEMBL1201862, “PubChem BioAssay data set” (2004)
